In patent US7947854B2, “Bis-cationic compounds and use thereof” (The University of Sydney, priority 2003, dated 2011):
Where two headings read alike, the source gives them in different places. Marks after values point to notes of the source that are not given here.

What was measured:
[1] = tested on: secreted phospholipase B (PLB activity); assay: Radiometric assay, secreted PLB activity; type: biochemical, Cryptococcus neoformans H99; conditions: for PLB, percentage inhibition of activity: Secretory Cryptococcal H99 Phospholipase; for % Inhibition PLB, Secretory Enzyme: pH 4
Procedure, shortened: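 Secreted enzyme was taken from cell-free supernatant of Cryptococcus isolate H99 cells incubated 24 h at 37° C. Reactions at 37° C, pH 4.0 imidazole acetate, used 800 μM DPPC with [14C]-dipalmitoyl PC and 1 μg protein for 22 min. PLB was measured as radiolabelled PC loss by TLC, with inhibition expressed versus inhibitor-free control; compounds were tested at 25 and 250 μM, then 2.5 and 0.25 μM.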

[2] = tested on: Candida albicans ATCC 10231; assay: Antifungal susceptibility testing, microdilution MIC; type: cell-based; conditions: Candida albicans, ATCC10231
Procedure, shortened: (§1)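 Standard microdilution method, run in duplicate, using serial dilutions of cationic compounds.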

[3] = tested on: Cryptococcus neoformans ATCC 90112; assay: as above; type: cell-based; conditions: Cryptococcus neoformans, ATCC90112
Procedure, shortened: as §1

[4] = Table 7, read-out: MIC (μM) C. alb. (10231)
[5] = Table 7, read-out: MIC (μM) Crypto. (ATCC 90112)
[6] = Table 6, no visible growth after 48 h at 35° C., read-out: MIC C. albicans ATCC 10231
[7] = Table 6, no visible growth after 72 h at 35° C., read-out: MIC C. neof. ATCC 90112

SMILES | PLB assay (% inhibition) ([1]; 0.25 μM) | PLB assay (% inhibition) ([1]; 2.5 μM) | PLB assay (% inhibition) ([1]; 6.7 μM) | PLB assay (% inhibition) ([1]; 12.5 μM) | PLB assay (% inhibition) ([1]; 25 μM) | PLB assay (% inhibition) ([1]; 250 μM) | MIC [2, 4] | MIC [3, 5] | PLB, percentage inhibition of activity ([1]; 0.25 μM) | % Inhibition PLB, Secretory Enzyme ([1]; 0.25 μM) | PLB, percentage inhibition of activity ([1]; 2.5 μM) | % Inhibition PLB, Secretory Enzyme ([1]; 2.5 μM) | PLB, percentage inhibition of activity ([1]; 25 μM) | % Inhibition PLB, Secretory Enzyme ([1]; 25 μM) | PLB, percentage inhibition of activity ([1]; 250 μM) | % Inhibition PLB, Secretory Enzyme ([1]; 250 μM) | MIC [2, 6] | MIC [3, 7]
CCCC[N+](CCCC)(CCCC)CCCCCCCCCCCC[N+](CCCC)(CCCC)CCCC [1,12-Bis-(tributylammonium)dodecane dichloride] | 0% | 6% | 35% | 56% | 65% | 85% | 5.5 µM | 2.5 µM | – | – | – | – | – | – | – | – | – | –
CCCC[P+](CCCC)(CCCC)CCCCCCCCCCCC[P+](CCCC)(CCCC)CCCC [Compound 1, 1,12-bis(tributylphosphonium)dodecane dibromide] | 0% | 0% | – | – | 35% | 55% | 8.8 µM | 2.5 µM | 0% | 0% | 0% | 0% | 35% | 35.2* % | 55% | 55.0* % | 8.8 µM | 2.5 µM
CCCC[N+](CCCC)(CCCC)CCCCCCCCCCCC[N+](CCCC)(CCCC)CCCC [Compound 3, 1,12-bis(tributylammonium)do-decane dibromide] | – | – | – | – | – | – | – | – | 20% | – | 65% | – | 80% | – | 85% | – | 11 µM | 2.5 µM
